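Five concentrations, 48 hours, 96-well plates. TGI denotes the concentration required for complete inhibition of growth.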

The results in this text go back to PubChem BioAssay (NCI).

Holding throughout (experiment): NCI anticancer screen, dose series, 48 h
Experiment [1] relates to A498 renal.
The subject of experiment [2] is ACHN renal.
Experiment [3] relates to DMS 273 small cell lung.
Experiment [4] deals with HCT-116 colon.
Experiment [5] deals with M14 melanoma.
Experiment [6] deals with NCI-H522 lung.
In experiment [7] the test system is RXF 393 renal.
Experiment [8] deals with SF-268 CNS.
The subject of experiment [9] is SF-295 CNS.
For experiment [10], the system named is SF-539 CNS.
Experiment [11] deals with SK-OV-3 ovarian.
In experiment [12] the test system is DMS 114 small cell lung.
Experiment [13] relates to 786-0 renal.
Experiment [14] has as its system DU-145 prostate.
The test system of experiment [15] is MCF7 breast.
The subject of experiment [16] is MDA-MB-231 breast.
Experiment [17] relates to MDA-MB-435.
Experiment [18] concerns NCI/ADR-RES ovarian.
Experiment [19] relates to HS 578T breast.
Experiment [20] has as its system T-47D breast.

As to `CC(=O)NNc1nc(C)c(C(=O)NNC(=O)C(=O)Nc2c(C)cccc2C(C)(C)C)s1`, the TGI in [1] is over 100 µM; in experiment [2] it was over 100 µM; in [3] it was over 100 µM; in [4], over 100 µM; in experiment [5], over 100 µM; in [6], 57.1 µM. The TGI in [7], in experiment [8], in experiment [9], in experiment [10] and in experiment [11] was over 100 µM each time.

As for `COC(=O)C1=C(C)N2CCOC2CC1c1ccccc1` (stereo unspecified), the TGI in experiment [2], in [12], in experiment [4], in experiment [5], in experiment [7] and in experiment [8] was over 100 µM throughout. Also, the TGI in experiment [9] and in experiment [10] was over 100 µM in each case.

For the molecule `C[N+](C)=c1nc(N2CCc3ccccc3C2)ss1`, the TGI in experiment [13], in experiment [1], in [2], in experiment [12], in [3] and in experiment [4] was over 100 µM throughout. Further, the TGI in experiment [5], in experiment [6], in experiment [7], in experiment [8], in [10] and in experiment [11] was over 100 µM each time.

With `COc1cc(C(=O)Nc2cc(C(N)=O)cc(OC)c2OC)cc(NC(=O)/C=C/c2ccccc2)c1OC`, the TGI in experiment [2] was over 100 µM; in experiment [14], over 100 µM; in experiment [15], over 100 µM; in [16], 57.5 µM; in experiment [17] it was over 100 µM; in experiment [6], over 100 µM. Also, the TGI in experiment [18], in experiment [7], in [9], in experiment [10] and in experiment [11] was over 100 µM in each case.

Consider `CNCCC=C1c2ccccc2CCc2ccccc21`, for which the TGI in experiment [13] came to 27.7 µM; in [1] it was 28.9 µM; in [2], 30.2 µM; in experiment [14], 28.8 µM; in experiment [4], 27.8 µM; in experiment [19], 51.1 µM. Besides, the TGI in experiment [5] is 14.7 µM; in [15] it was 30.4 µM; in [16], over 51.9 µM; in experiment [17], 28.2 µM; in [6], 29.2 µM; in experiment [18], 30.4 µM. The TGI in [7] came to 22.6 µM; in experiment [8], 29.6 µM; in experiment [9], 27.8 µM; in [10] it was 44.1 µM; in [11] it was 25.2 µM; in experiment [20] it was 23.5 µM.

For the molecule `CN(C)CCN(C(=Nc1ccccc1)N1CCCC1)c1ccccc1`, the TGI in [2], in [14], in [4], in [19], in experiment [5] and in experiment [15] was over 100 µM in each case. Also, the TGI in [17], in [6], in [18], in experiment [8], in experiment [9] and in experiment [11] was over 100 µM throughout. In experiment [20], this molecule yielded a TGI of over 100 µM.

On to `C/C(=N\NC(=S)NCc1ccccc1)c1nc2ncccc2[nH]1`, for which the TGI in experiment [13] was over 100 µM; in [1], 50 µM; in [2], 52.9 µM; in [14] it was 24.5 µM; in experiment [4], 17.3 µM; in [19], over 100 µM. Moreover, the TGI in [5] was 19.8 µM; in experiment [15], 16.2 µM; in experiment [16] it was 90.2 µM; in experiment [17] it was 33.5 µM; in experiment [6], 32 µM; in experiment [18], 78.8 µM. The TGI in [8] was 65.6 µM; in [9], 22.8 µM; in experiment [10], 20.8 µM; in experiment [11], over 100 µM; in experiment [20], 43.3 µM.

As for `O=C(CCN1CCOCC1)C(=Cc1ccccc1)C(=O)CCN1CCOCC1`, the TGI in experiment [1] came to 31.4 µM; in [3] it was 26 µM; in [4], 5.5 µM; in experiment [15], 13.4 µM; in experiment [6], 2.85 µM; in experiment [18], 13.9 µM. Further, the TGI in experiment [7] is 3.14 µM; in experiment [8] it was 15.1 µM; in experiment [9], 29.1 µM; in [10], 10 µM; in experiment [11], 31.1 µM.

With `COc1cc2oc(=O)ccc2cc1CC=C(C)C`, the TGI in [1], in experiment [2], in experiment [14], in experiment [4], in experiment [19] and in experiment [15] was over 100 µM throughout. For the same molecule, the TGI in experiment [16] is over 100 µM; in [17], over 100 µM; in [6] it was over 100 µM; in experiment [18] it was 79.3 µM; in [7] it was 64.7 µM; in experiment [8], over 100 µM. Further, the TGI in experiment [9], in experiment [10] and in experiment [20] was over 100 µM in each case.

As to `CN(C)Cc1cc(C(C)(C)C)cc(C2CCCCC2)c1O`, the TGI in [13] is 41.5 µM; in experiment [2], 28.9 µM; in experiment [14] it was 27.8 µM; in experiment [4], over 100 µM; in experiment [19], 33.9 µM; in experiment [5], over 100 µM. Moreover, the TGI in experiment [15] turned out to be 36.4 µM; in experiment [16], 26.7 µM; in experiment [17], 36.6 µM; in [6], 37.2 µM; in [18], 44.4 µM; in [7] it was 26.4 µM. Further, the TGI came to 32.5 µM in experiment [8], 22.8 µM in experiment [10], 28.7 µM in experiment [11] and 21.6 µM in [20].

Regarding `CCN(CC)CCN(C(=O)c1ccc(F)cc1)c1ccccc1N`, the TGI in experiment [1], in experiment [2], in [14], in experiment [4], in experiment [19] and in [5] was over 10 µM throughout. Also, the TGI in [15], in experiment [16], in [17], in experiment [6], in experiment [18] and in experiment [7] was over 10 µM in each case. Also, the TGI in experiment [8], in [9], in experiment [10], in experiment [11] and in [20] was over 10 µM each time.

Turning to `NCc1cc(O)c(O)c(O)c1`, the TGI in experiment [13], in experiment [1], in [2], in experiment [12], in [3] and in experiment [4] was over 100 µM each time. Moreover, the TGI in experiment [5], in [6], in [7], in [8], in [9] and in experiment [11] was over 100 µM in each case.

`O=C(N/N=C\C(F)(F)F)c1ccncc1`: the TGI in experiment [1], in [14], in experiment [19], in experiment [5], in experiment [15] and in experiment [17] was over 100 µM each time. Also, the TGI in experiment [18], in [7], in experiment [9] and in experiment [11] was over 100 µM throughout.
